Here are results for two molecules from publication PMC2267855, “Site-directed mutagenesis of Arginine282 suggests how protons and peptides are co-transported by rabbit PepT1” (The International Journal of Biochemistry & Cell Biology, 2008).

Where a chain is given by its changes, count along the chain named. Where a SMILES comes first, the peptide text is derived from it.

One test addresses T1, wild-type PepT1 (Oryctolagus cuniculus, UniProt P36836).
T1 construct: expressed in transfected cells; host or cells: Xenopus laevis oocytes injected with cRNA
T1 sequence (P36836 1-707): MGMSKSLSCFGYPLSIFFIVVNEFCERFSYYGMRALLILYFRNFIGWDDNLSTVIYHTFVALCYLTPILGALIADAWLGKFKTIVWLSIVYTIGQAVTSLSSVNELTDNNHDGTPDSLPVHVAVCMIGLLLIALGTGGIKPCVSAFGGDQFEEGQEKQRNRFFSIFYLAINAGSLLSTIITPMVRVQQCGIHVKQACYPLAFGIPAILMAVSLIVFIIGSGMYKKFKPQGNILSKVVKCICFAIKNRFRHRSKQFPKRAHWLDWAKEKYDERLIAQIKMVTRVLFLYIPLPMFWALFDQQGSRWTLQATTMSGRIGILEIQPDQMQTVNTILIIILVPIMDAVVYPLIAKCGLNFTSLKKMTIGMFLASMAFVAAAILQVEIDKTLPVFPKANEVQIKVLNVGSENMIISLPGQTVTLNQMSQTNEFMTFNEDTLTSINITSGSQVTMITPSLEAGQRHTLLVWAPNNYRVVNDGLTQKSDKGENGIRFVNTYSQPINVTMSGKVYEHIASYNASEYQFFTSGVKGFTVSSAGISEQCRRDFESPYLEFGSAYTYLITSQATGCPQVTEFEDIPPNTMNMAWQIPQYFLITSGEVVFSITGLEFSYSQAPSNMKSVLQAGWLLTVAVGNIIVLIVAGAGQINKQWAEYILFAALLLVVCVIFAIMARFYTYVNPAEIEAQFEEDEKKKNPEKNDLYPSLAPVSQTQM
In words: Accumulation of [3H]-D-Phe-L-Gln above the extracellular concentration by oocytes expressing wild-type PepT1. The test is classed as cell-based, rabbit. How it is done: (§1) Zero-trans uptake of [^3H]-D-Phe-L-Gln (17.4 Ci/mmole, custom synthesised, Cambridge Research Biochemicals, Stockton-on-Tees, UK) was performed as previously described ([Meredith, 2004]). Briefly, 5 oocytes were incubated in 100 μl of uptake medium (95 mM NaCl, 2 mM KCl, 1 mM CaCl2, 0.42 mM MgCl2, 10 mM Tris/Hepes pH 7.4 or Tris/Mes pH 5.5) with tracer (0.4 μM) [^3H]-D-Phe-L-Gln. After incubation, the oocytes were washed sequentially five times in 1 ml of ice-cold 120 mM NaCl solution, lysed individually with 100 μl 2% (w/v) SDS and liquid scintillation counted. As a control non-injected oocytes were also incubated in uptake medium with [^3H]-D-Phe-L-Gln as above.

For another test, the target named is T2, R282A-PepT1 (Oryctolagus cuniculus, UniProt P36836, R282A).
T2 construct: expressed in transfected cells; host or cells: Xenopus laevis oocytes injected with cRNA
T2 sequence (P36836 1-707 R282A): T1 sequence (P36836 1-707) with R282A
In words: Inhibition of [3H]-D-Phe-L-Gln uptake into Xenopus oocytes expressing R282A-PepT1 (competition, Ki). The note with it: pHout 5.5, 0.4 μM [3H]-D-Phe-L-Gln. In kind it is cell-based, rabbit. How it is done:
as §1
The affinity of wild-type and mutant PepT1 were assessed by competition studies with 0.4 μM [^3H]-D-Phe-L-Gln and Gly-L-Gln present in the uptake medium in concentrations from 0 to 2 mM using the protocol above, and the Ki calculated using the method of [Deves and Boyd (1989)].

As to `NC(=O)CC[C@H](NC(=O)[C@H](N)Cc1ccccc1)C(=O)O` [D-Phe-L-Gln], the “accumulation above extracellular concentration” value at wild-type PepT1 (third comparison, printed as wild-type PepT1 at pHout 7.4, 8 h incubation) was 1.0 ± 0.4; on wild-type PepT1 (third comparison, printed as wild-type PepT1 at pHout 7.4, 24 h incubation), 1.5 ± 0.3; on wild-type PepT1 (wild-type PepT1, pHout 5.5, 8 h incubation), 8.0 ± 1.4; on wild-type PepT1 (wild-type PepT1, pHout 5.5, 24 h incubation) it was 8.3 ± 1.0; at wild-type PepT1 (wild-type PepT1, pHout 7.4, 8 h incubation) it was 2.5 ± 0.5; on wild-type PepT1 (wild-type PepT1, pHout 7.4, 24 h incubation), 3.1 ± 0.5 -fold.

In general, Ki refers to a measure of affinity in units of concentration, obtained from inhibition or displacement. `NCC(=O)N[C@@H](CCC(N)=O)C(=O)O` [Gly-L-Gln] (H-Gly-Gln-OH): the affinity at R282A-PepT1 corresponds to a Ki of 300 ± 170 µM.
